{"source": "ChEMBL document CHEMBL3882247", "about": "“Use of dibenzofuranone derivatives to inhibit kinases” (2013)", "key": {"Casein kinase 2": {"target": "Casein kinase 2 (Rattus norvegicus, UniProt P19139)", "sequence (P67874 whole entry)": "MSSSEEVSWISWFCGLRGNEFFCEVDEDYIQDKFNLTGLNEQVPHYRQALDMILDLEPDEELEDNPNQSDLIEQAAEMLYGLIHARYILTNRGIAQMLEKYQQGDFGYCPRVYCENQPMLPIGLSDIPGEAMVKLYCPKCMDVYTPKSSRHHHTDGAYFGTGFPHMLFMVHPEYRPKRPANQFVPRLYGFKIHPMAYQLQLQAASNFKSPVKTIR", "sequence (P19139 whole entry)": "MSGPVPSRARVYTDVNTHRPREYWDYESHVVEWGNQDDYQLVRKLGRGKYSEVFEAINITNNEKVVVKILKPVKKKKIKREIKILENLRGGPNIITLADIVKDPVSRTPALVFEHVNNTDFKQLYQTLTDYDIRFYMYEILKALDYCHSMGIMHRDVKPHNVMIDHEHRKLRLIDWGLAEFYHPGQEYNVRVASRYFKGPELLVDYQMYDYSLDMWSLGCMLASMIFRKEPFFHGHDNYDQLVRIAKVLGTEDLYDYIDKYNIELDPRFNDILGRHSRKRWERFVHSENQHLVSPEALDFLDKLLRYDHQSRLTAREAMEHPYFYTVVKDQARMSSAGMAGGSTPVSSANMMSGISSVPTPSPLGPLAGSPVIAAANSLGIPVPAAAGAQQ", "assay": "Inhibition of rat liver CK2 using RRRADDSDDDDD as substrate after 10 mins in presence of [gamma-33P]-ATP"}, "LNCaP [1]": {"system": "LNCaP", "assay": "Cytotoxicity against human LNCAP cells assessed as decrease in cell viability after 24 to 72 hrs by MTT assay", "type": "functional, cell-based"}, "[2]": {"target": "T1, Casein kinase II (Homo sapiens) (UniProt P67870+P68400+P19784)", "assay": "Inhibition of CK2 in human LNCAP cell lysates after 24 to 48 hrs in presence of [gamma-32P]ATP by radiometric analysis", "type": "cell-based"}, "[3]": {"target": "T1, Casein kinase II (Homo sapiens)", "assay": "Inhibition of CK2 (unknown origin) assessed as residual activity using E-peptide as substrate at 10 uM incubated for 10 mins prior to testing by capillary electrophoretic analysis", "type": "protein-complex assay"}, "LNCaP [4]": {"system": "LNCaP", "assay": "Cytotoxicity against human LNCAP cells assessed as cell viability at 50 uM after 48 hrs by MTT assay", "type": "functional"}, "LNCaP [5]": {"system": "LNCaP", "assay": "Cytotoxicity against human LNCAP cells assessed as cell viability at 50 uM after 24 hrs by MTT assay", "type": "functional"}, "LNCaP [6]": {"system": "LNCaP", "assay": "Cytotoxicity against human LNCAP cells assessed as cell viability at 50 uM after 72 hrs by MTT assay", "type": "functional"}, "LNCaP [7]": {"system": "LNCaP", "assay": "Cytotoxicity against human LNCAP cells assessed as cell viability at 25 uM after 48 hrs by MTT assay", "type": "functional"}, "LNCaP [8]": {"system": "LNCaP", "assay": "Induction of apoptosis in human LNCAP cells assessed as PARP cleavage at 25 to 50 uM after 24 to 48 hrs by Western blot analysis", "type": "functional, cell-based"}, "LNCaP [9]": {"system": "LNCaP", "assay": "Cytotoxicity against human LNCAP cells assessed as cell viability at 25 uM after 24 hrs by MTT assay", "type": "functional"}, "LNCaP [10]": {"system": "LNCaP", "assay": "Induction of apoptosis in human LNCAP cells assessed as PARP cleavage after 24 to 48 hrs by Western blot analysis", "type": "functional, cell-based"}}, "note": "Active and inactive are the calls of the source. The calls are words filed in the database; no cut-off is given here."}
{"compound": "O=c1oc2c(O)c(O)cc3c(=O)oc4c(O)c(O)cc1c4c23", "note": "[ELLAGIC ACID]", "values": [{"measurement": "IC50", "setting": "Casein kinase 2", "value": 40, "unit": "nM"}]}
{"compound": "COc1ccc(N/C=C2\\C(=O)CCc3c2oc2cc(Cl)c(O)c(Cl)c32)cc1", "values": [{"measurement": "Activity", "setting": "LNCaP [1]", "value": "Dose-dependent effect"}, {"measurement": "inhibition", "setting": "[2]", "value": "Active"}]}
{"compound": "CC(C)=CC(=O)c1oc2c(Cl)c(Cl)c(O)c(C#N)c2c1N", "values": [{"measurement": "Activity", "setting": "[3]", "value": "< 4", "unit": "%"}]}
{"compound": "Brc1c(Br)c(Br)c2[nH]nnc2c1Br", "values": [{"measurement": "Activity", "setting": "LNCaP [4]", "value": "Active"}, {"measurement": "Activity", "setting": "LNCaP [5]", "value": "Active"}, {"measurement": "Activity", "setting": "LNCaP [6]", "value": "Active"}, {"measurement": "Activity", "setting": "LNCaP [7]", "value": "Active"}, {"measurement": "Activity", "setting": "LNCaP [8]", "value": "Active"}, {"measurement": "Activity", "setting": "LNCaP [9]", "value": "Active"}, {"measurement": "Activity", "setting": "LNCaP [1]", "value": "Dose-dependent effect"}]}
{"compound": "Cc1ccc(N/C=C2\\C(=O)CCc3c2oc2c(Cl)c(Cl)c(O)cc32)cc1", "values": [{"measurement": "Activity", "setting": "[3]", "value": "< 4", "unit": "%"}, {"measurement": "Activity", "setting": "LNCaP [10]", "value": "Dose-dependent effect"}, {"measurement": "Activity", "setting": "LNCaP [1]", "value": "Dose-dependent effect"}]}
{"compound": "CC(=O)Oc1c(Cl)c(Cl)c2oc(C(=O)C=C(C)C)c(N)c2c1C#N", "values": [{"measurement": "Activity", "setting": "[3]", "value": 7, "unit": "%"}]}
{"compound": "CCOC(=O)c1oc2c(Cl)c(Cl)c(OC(C)=O)c(C#N)c2c1N", "values": [{"measurement": "Activity", "setting": "[3]", "value": 31, "unit": "%"}]}
{"compound": "COc1ccc(/N=C/c2c(O)ccc3c2oc2cc(Cl)c(O)c(Cl)c23)cc1", "values": [{"measurement": "Activity", "setting": "LNCaP [1]", "value": "Dose-dependent effect"}, {"measurement": "inhibition", "setting": "[2]", "value": "Active"}]}
